Experimental data as given in ChEMBL document CHEMBL4483862, “Open-source discovery of chemical leads for next-generation chemoprotective antimalarials” (2018).

Tested on: Plasmodium berghei
Test: Luciferase/luciferin-expressing antifolate-resistant parasites were used to infect a culture of HepG2 cells that were pre-incubated with compounds. Infected hepatocytes emit light due to the luciferase reaction. Assay results are presented as the percent inhibition of light emission compared to control. […]
Type: functional
Details: sporozoite; for IC90: read-out: LUCIFERASE INFECTION ASSAY - IC90

| SMILES | IC90 [µM] | also measured |
| --- | --- | --- |
| Cc1ccc(-n2c(C)cc(C(=O)COC(=O)c3cccnc3O)c2C)cc1C | 6.62 | IC50 (PBLUC_HILL_SLOPE 1.34, PBLUC_R_SQUARED 0.562, read-out: LUCIFERASE INFECTION ASSAY - IC50): 1.29 µM |
| O=C(Nc1ccc(N2CCCCCC2)cc1)c1ccc[nH]1 | 2.88 | IC50 (PBLUC_HILL_SLOPE 1.36, PBLUC_R_SQUARED 0.768, read-out: LUCIFERASE INFECTION ASSAY - IC50): 0.569 µM |
| CCOC(=O)c1cnn(-c2ccc(Cc3ccc(-n4ncc(C(=O)OCC)c4C)cc3)cc2)c1C | > 6.98 | IC50 (PBLUC_HILL_SLOPE 1.32, PBLUC_R_SQUARED 0.439, read-out: LUCIFERASE INFECTION ASSAY - IC50): 2.06 µM |
| CN(C)CCNc1ccnc2c(-c3ccccc3Oc3ccccc3)cnn12 | > 8.84 | IC50 (PBLUC_HILL_SLOPE 1.31, PBLUC_R_SQUARED 0.651, read-out: LUCIFERASE INFECTION ASSAY - IC50): 5.14 µM |
| CNc1nc2cnc(Nc3ccc(OC(C)C)cc3)cc2n1-c1cc(OC)c(OC)c(OC)c1 | > 10 | IC50 (PBLUC_HILL_SLOPE 1.37, PBLUC_R_SQUARED 0.322, read-out: LUCIFERASE INFECTION ASSAY - IC50): 5.86 µM |
| O=C(Nc1ccccc1)Nc1ccccc1Sc1nccc(C(F)(F)F)n1 | 8.05 | IC50 (PBLUC_HILL_SLOPE 1.34, PBLUC_R_SQUARED 0.717, read-out: LUCIFERASE INFECTION ASSAY - IC50): 1.57 µM |
| O=[N+]([O-])c1ccc(Oc2c(Cl)cc(Cl)cc2Cl)cc1 | > 10.4 | IC50 (PBLUC_HILL_SLOPE 1.34, PBLUC_R_SQUARED 0.555, read-out: LUCIFERASE INFECTION ASSAY - IC50): 3.75 µM |
| Clc1cccc(-c2cnn3c(NCCCN4CCOCC4)ccnc23)c1 | > 8.87 | IC50 (PBLUC_HILL_SLOPE 1.37, PBLUC_R_SQUARED 0.567, read-out: LUCIFERASE INFECTION ASSAY - IC50): 3.66 µM |
| CC(C)Nc1cc(-c2ccccc2)nc2c(-c3ccccc3)cnn12 | > 10 | IC50 (PBLUC_HILL_SLOPE 1.35, PBLUC_R_SQUARED 0.594, read-out: LUCIFERASE INFECTION ASSAY - IC50): 2.01 µM |
| Cc1ccc(OCC(=O)Nc2cc(NC(=O)c3ccco3)ccc2C)c(C)c1 | 8.08 | IC50 (PBLUC_HILL_SLOPE 1.36, PBLUC_R_SQUARED 0.771, read-out: LUCIFERASE INFECTION ASSAY - IC50): 1.61 µM |
| CCOc1ccc(C(C)=O)cc1CSc1nc2scc(-c3ccccc3)c2c(=O)n1C | > 10 | IC50 (PBLUC_HILL_SLOPE 1.32, PBLUC_R_SQUARED 0.21, read-out: LUCIFERASE INFECTION ASSAY - IC50): > 10 µM |
| COc1cc(-c2cc3[nH]c4ccccc4n3c(=O)c2Sc2ccc([N+](=O)[O-])cc2)cc(OC)c1OC | 9.18 | IC50 (PBLUC_HILL_SLOPE 1.34, PBLUC_R_SQUARED 0.513, read-out: LUCIFERASE INFECTION ASSAY - IC50): 1.78 µM |
| CCOC(=O)/C(=N\Nc1cccc(C(F)(F)F)c1)NC(C)c1ccccc1 (stereo not given) | > 10 | IC50 (PBLUC_HILL_SLOPE 1.36, PBLUC_R_SQUARED 0.117, read-out: LUCIFERASE INFECTION ASSAY - IC50): > 10 µM |
| O=C(Nc1ccc([N+](=O)[O-])cc1Br)C(Nc1ccc2c(c1)OCCO2)c1ccccc1 (stereo not given) | > 10 | IC50 (PBLUC_HILL_SLOPE 1.35, PBLUC_R_SQUARED 0.497, read-out: LUCIFERASE INFECTION ASSAY - IC50): 2.53 µM |
| O=C(NNC(=O)c1sccc1OCc1ncc(C(F)(F)F)cc1Cl)c1ccccc1 | > 7.24 | IC50 (PBLUC_HILL_SLOPE 1.3, PBLUC_R_SQUARED 0.614, read-out: LUCIFERASE INFECTION ASSAY - IC50): 4.13 µM |
| Cc1c(C)n(CCCN(C)C)c2ncn3nc(-c4ccc(N(C)C)cc4)nc3c12 | > 8.43 | IC50 (PBLUC_HILL_SLOPE 1.37, PBLUC_R_SQUARED 0.575, read-out: LUCIFERASE INFECTION ASSAY - IC50): 3.73 µM |
| COCCCn1c(SCc2ccc(C)cc2)nnc1-c1ccc(C(C)(C)C)cc1 | > 8.06 | IC50 (PBLUC_HILL_SLOPE 1.28, PBLUC_R_SQUARED 0.571, read-out: LUCIFERASE INFECTION ASSAY - IC50): > 8.06 µM |
| CCCc1cc(-n2ccnc2)n2ncc(-c3ccccc3)c2n1 | > 10.9 | IC50 (PBLUC_HILL_SLOPE 1.29, PBLUC_R_SQUARED 0.543, read-out: LUCIFERASE INFECTION ASSAY - IC50): 5.89 µM |
| CN1CCN(c2ccc(Cl)cc2NC(=O)c2cccc(Oc3ccccc3)c2)CC1 | 2.23 | IC50 (PBLUC_HILL_SLOPE 1.31, PBLUC_R_SQUARED 0.699, read-out: LUCIFERASE INFECTION ASSAY - IC50): 0.415 µM |
| N#CC(c1ccccc1)c1ccc(NC(=S)NCC2CCCO2)cc1Cl (stereo not given) | > 10 | IC50 (PBLUC_HILL_SLOPE 1.33, PBLUC_R_SQUARED 0.895, read-out: LUCIFERASE INFECTION ASSAY - IC50): 4.42 µM |

| SMILES | IC90 [µM] | also measured |
| --- | --- | --- |
| CC(=O)NCc1ccc(C(=O)Nc2ccccc2O)cc1 | 9.91 | IC50 (PBLUC_HILL_SLOPE 1.36, PBLUC_R_SQUARED 0.725, read-out: LUCIFERASE INFECTION ASSAY - IC50): 1.97 µM |
| CCSc1nccc(-c2ccc3c(c2)CCC(C)(C)O3)n1 | 3.37 | IC50 (PBLUC_HILL_SLOPE 1.33, PBLUC_R_SQUARED 0.696, read-out: LUCIFERASE INFECTION ASSAY - IC50): 0.648 µM |
| CCn1c(C(=O)OC)c(NC(=O)C2CCOC2)c2cc(NCC(C)c3ccccc3)cnc21 (stereo not given) | > 7.32 | IC50 (PBLUC_HILL_SLOPE 1.36, PBLUC_R_SQUARED 0.443, read-out: LUCIFERASE INFECTION ASSAY - IC50): 5.53 µM |
| c1ccc(NCCNc2nc(-c3ccncc3)nc3ccccc23)nc1 | > 10 | IC50 (PBLUC_HILL_SLOPE 1.36, PBLUC_R_SQUARED 0.325, read-out: LUCIFERASE INFECTION ASSAY - IC50): 5.09 µM |
| O=C(Nc1ccc(Oc2cc(C(F)(F)F)cc(C(F)(F)F)c2)cc1)c1cccs1 | 0.356 | IC50 (PBLUC_HILL_SLOPE 1.36, PBLUC_R_SQUARED 0.733, read-out: LUCIFERASE INFECTION ASSAY - IC50): 0.0707 µM |
| Cn1cc(CN2CCC3(CC2)C(=O)N(CCCc2cccnc2)C(=O)N3Cc2ccccc2)c2ccccc21 | > 6.33 | IC50 (PBLUC_HILL_SLOPE 1.35, PBLUC_R_SQUARED 0.738, read-out: LUCIFERASE INFECTION ASSAY - IC50): 3.23 µM |
| CCCNC(=O)c1c(NC(=O)c2ccc(F)cc2)nc2ccc(C)cn12 | > 9.31 | IC50 (PBLUC_HILL_SLOPE 1.32, PBLUC_R_SQUARED 0.773, read-out: LUCIFERASE INFECTION ASSAY - IC50): 3.1 µM |
| CC(=O)Nc1ccc(NC(=O)/C=C/c2cc(C)n(-c3ccccc3)c2C)c(C(F)(F)F)c1 | 9.3 | IC50 (PBLUC_HILL_SLOPE 1.31, PBLUC_R_SQUARED 0.816, read-out: LUCIFERASE INFECTION ASSAY - IC50): 1.74 µM |
| CC(C)NC(=O)C1(C)CCN1C(=O)c1ccc(-c2ccccc2)cc1 (stereo not given) | > 9.81 | IC50 (PBLUC_HILL_SLOPE 1.28, PBLUC_R_SQUARED 0.251, read-out: LUCIFERASE INFECTION ASSAY - IC50): > 9.81 µM |
| CC(C)c1cc(Cl)n2ncc(-c3ccccc3)c2n1 | > 12.1 | IC50 (PBLUC_HILL_SLOPE 1.33, PBLUC_R_SQUARED 0.849, read-out: LUCIFERASE INFECTION ASSAY - IC50): 4.61 µM |
| CCOC(=O)c1c(C)[nH]c(C(=O)Nc2ncccc2C)c1C | > 10 | IC50 (PBLUC_HILL_SLOPE 1.33, PBLUC_R_SQUARED 0.354, read-out: LUCIFERASE INFECTION ASSAY - IC50): 2.54 µM |
| OC[C@H]1O[C@@H](c2nc(-c3nc(-c4ccc5c(c4)OCO5)no3)cs2)C[C@@H]1O | 2.15 | IC50 (PBLUC_HILL_SLOPE 1.28, PBLUC_R_SQUARED 0.808, read-out: LUCIFERASE INFECTION ASSAY - IC50): 0.386 µM |
| Cc1cc(C)n2ncc(C(=O)Nc3cccc(/C=C/c4ccccn4)c3)c2n1 | 8.17 | IC50 (PBLUC_HILL_SLOPE 1.28, PBLUC_R_SQUARED 0.742, read-out: LUCIFERASE INFECTION ASSAY - IC50): 1.46 µM |
| CCN(CC)CCSc1nc(-c2ccc(C)cc2)nc2c1COC(C)(C)C2 | > 8.56 | IC50 (PBLUC_HILL_SLOPE 1.36, PBLUC_R_SQUARED 0.0849, read-out: LUCIFERASE INFECTION ASSAY - IC50): > 8.56 µM |
| CCc1cccc2c(C(=O)CN3CCC(C(=O)N4CCCCCC4)CC3)c[nH]c12 | > 10 | IC50 (PBLUC_HILL_SLOPE 1.3, PBLUC_R_SQUARED 0.149, read-out: LUCIFERASE INFECTION ASSAY - IC50): > 10 µM |
| CCN(CC)Cc1nc(N2CCN(Cc3c(C)nc4ccc(C)cn34)CC2)c2c(C)c(C)sc2n1 | > 10 | IC50 (PBLUC_HILL_SLOPE 1.28, PBLUC_R_SQUARED 0.354, read-out: LUCIFERASE INFECTION ASSAY - IC50): 5.6 µM |
| c1csc(SCc2ccc3nonc3c2)c1 | > 13.3 | IC50 (PBLUC_HILL_SLOPE 1.33, PBLUC_R_SQUARED 0.35, read-out: LUCIFERASE INFECTION ASSAY - IC50): > 13.3 µM |
| O=C(c1c[nH]c2ccccc12)C(c1ccccc1)N1CCN(CC(=O)N2CCCC2)CC1 (stereo not given) | > 10 | IC50 (PBLUC_HILL_SLOPE 1.28, PBLUC_R_SQUARED 0.65, read-out: LUCIFERASE INFECTION ASSAY - IC50): 3.5 µM |
| COc1cc(C(=O)OCC(=O)c2ccc(-c3ccccc3)cc2)c([N+](=O)[O-])cc1OC | > 10 | IC50 (PBLUC_HILL_SLOPE 1.3, PBLUC_R_SQUARED 0.199, read-out: LUCIFERASE INFECTION ASSAY - IC50): > 10 µM |
| Cc1cc(CSc2ccccc2)ccc1NC(=O)Nc1ccccc1 | > 9.47 | IC50 (PBLUC_HILL_SLOPE 1.29, PBLUC_R_SQUARED 0.521, read-out: LUCIFERASE INFECTION ASSAY - IC50): 2.22 µM |
